# US10100096B2, “Tissue protective peptides and uses thereof” (Araim Pharmaceuticals, Inc., priority 2005, dated 2018)
# “Also recorded” adds a separate entry of the source. No end group written: not given here.
# Key:
# [1] = In vivo assessment of erythropoietic activity and neutralizing antibodies; design: species or system rat; details: rats, 0.8 μg/kg s.c. 3 days/week over 130 days, FIG. 4; for increase in hemoglobin levels (hematocrit): EPO at equimolar dosage
# Description: To evaluate the erythropoietic activity of tissue protective peptide F (SEQ ID NO:33) or peptide G (SEQ ID NO:40, as discussed supra a peptide constructed of the presenting residues of Helix B), the peptides were administered 0.8 μg/kg subcutaneously three time per week to male Sprague Dawley rats. The dosage schedule corresponded to the equivalent dose (on a molar basis) of EPO previously determined to be elicit maximum erythropoiesis. Hemoglobin concentration was determined periodically by use of an automated analyzer (Keska Corporation).
# [2] = test system: right sciatic nerve of rats; experiment: Sciatic nerve assay (in vivo sciatic nerve injury model); design: species or system rat; details: Example 2, Table 1, FIG. 1, FIG. 2, comparison with carbamylated EPO
# Description: The tissue protective peptides were tested for any tissue protective activity using a Sciatic Nerve Assay. Sprague-Dawley rats (250-300 grams) (six per group, including control) were anesthetized using isoflurane (Baxter NPC 10019-773-60) and a Table Top Laboratory Anesthesia System (flowmeter set to 2-3 liters/minute @55 psi) for at least 3 minutes. The rat was then placed on a homeothermic blanket to ensure that the core temperature of the rat was maintained at 35-37° C. during the operation. Core temperature was monitored via a rectal probe. The right sciatic nerve of the anesthetized rat was exposed at mid thigh through a quadriceps muscle dissection; a 2 cm incision with a 15 blade scalpel was made through the skin parallel and over the quadriceps muscle and the quadriceps muscle was cut to expose the sciatic nerve using a pair of dissecting scissors. The sciatic nerve was then freed from the surrounding membranes. A 2-0 braided silk thread (Ethicon, 685-G) was passed under the nerve and the ends of the suture passed through a guide which was maintained perpendicular to the nerve. The end of the suture was then tied to a non-elastic cord which was then draped around the pulley system (a NYL pulley bearing MTD ¼″ B (PO Number 04174-01) with stabilizer) and a 100 gram weight attached to the non-elastic cord was slowly released. The weight was allowed to hang for 1 minute before the silk suture was cut to release the weight.
# A 289 pmol/kg dose of carbamylated erythropoietin, a 289 pmol/kg dose of one peptide from the series A-J (see Table 1), or PBS was then injected into the caudal vein using a ½ cc insulin syringe.
# The muscle and surgical incision were then closed and 5 ml of Lactated Ringers solution was injected subcutaneously into the rat. The core temperature of the rat was maintained at 35-37° C. using a heat blanket during recovery.
# Over the next four days the rear toe splaying of the rats was determined by placing the rat in an acrylic tube with a diameter of 30 cm on the scanning surface of a digital scanner. […] Three acceptable scans of each rat were taken. From the scans, the Toe Spread (the distance between the ball of the first toe and the ball of the fifth toe) and the Intermediate Toe Spread (the distance between the ball of the second toe and the ball of the fourth toe) were measured. The static sciatic index was then computed in accordance with S. Erbayraktar et al., 2003, Proc Natl Acad Sci USA 100, 6741-6746 (hereby incorporated by reference in its entirety) and statistical analysis performed.
# mouse P19 cells = experiment: P19 cell apoptosis upon withdrawal of serum; assay type: cell-based; details: times more potent than EPO, on a weight basis; FIG. 6
# Description: Alternatively, tissue protection afforded by peptides can be determined using an assay employing mouse P19 cells, which are neuronal-like and die via apoptosis upon withdrawal of serum. Tissue protection of peptide D (SEQ ID NO:30) was compared to that of EPO using P19 clone P19S1801A1 as previously published (Siren et al., 2001, PNAS 98:4044, hereby incorporated by reference in its entirety). Cells were maintained undifferentiated in DMEM supplemented with 2 mM Lglutamine; 100 units/ml penicillin G; […] streptomycin sulfate (GIBCO); 10% (vol/vol) FBS (HyClone), containing 1.2 g/liter NaHCO3 and 10 mM Hepes buffer, hereafter referred to as complete medium. Serum-free medium contained the same components as above with the deletion of serum and the addition of 5 mg/ml of insulin; […] of transferrin; 20 nM progesterone; […] putrescine; 30 nM Na2SeO3 (from Sigma). For the experiments, 50% confluent cells were pretreated overnight with EPO or vehicle, dissociated with trypsin, washed in serum-free medium, and plated in 25-cm^2 tissue culture flasks at a final density of 10^4 cells/cm^2 in serum-free medium alone or with added EPO. Cell viability and was determined by trypan blue exclusion and a hemacytometer.
# [3] = test system: experimental autoimmune encephalomyelitis in mice; experiment: Murine EAE model; assay type: in vivo, mouse; details: C57BL/6 mice; 4.4 μg/kg daily starting day 4 after immunization; p<0.01; FIG. 13
# Description: Experimental autoimmune encephalomyelitis ([…]) was induced in C57BL/6 female mice (6-8 weeks of age) according to Savino et al., 2006, J Neuroimmunol 172:27-37, hereby incorporated by reference in its entirety. EAE was induced by subcutaneous immunization in the flanks with a total of 200 μg of MOG35-55 (Multiple Peptide Systems, San Diego, Calif., USA) in incomplete Freund's adjuvant (Sigma. St. Louis, Mo., USA) supplemented with 8 mg/ml of Mycobacterium tuberculosis (strain H37RA; Difco, Detroit, Mich., USA). Animals were housed in specific pathogen-free conditions, allowing access to food and water ad libitum. Mice received 500 ng of pertussin toxin (Sigma) i.v. at the time of immunization and 48 h later. Weight and clinical score were recorded daily (0=healthy, 1=flaccid tail, 2=ataxia, and/or hind-limbs paresis, or slow righting reflex, […] 3=paralysis of hind limb and/or paresis of forelimbs, 4=paraparesis of fore limb, 5=moribund or death). Food pellets and the drinking water were placed on Petri plates on the floor of the cage to enable sick mice to eat and drink. Peptide E (SEQ ID NO:31) was administered daily subcutaneously at a dose of 4.4 micrograms/kg-bw, starting on day 4 after immunization.
sequence,measurement,setting,value
"RYLLEAKEAENITTGC [Peptide F, RYLLEAKEAENITTGC]",neutralizing antibody response against EPO,[1],no neutralizing antibody response was observed; also recorded: neither peptide elicits an antibody response
"NITVPDTKVNFYAWKRMEVG (Peptide C - loop AB and N-terminal portion of helix B corresponding to EPO amino acids 38-57) [EPO fragment, amino acids 38-57]",tissue protective activity in the sciatic nerve injury model (in words),[2],exhibit tissue protective properties
same,increase in hemoglobin levels (hematocrit),[1],Neither Peptide B nor Peptide C showed any increase in hematocrit
same,potency relative to EPO in preventing apoptosis of p19 cells,mouse P19 cells,at least 10
"QEQLERALNSS [Peptide G, QEQLERALNSS]",neutralizing antibody response against EPO,[1],no neutralizing antibody response was observed; also recorded: neither peptide elicits an antibody response
CSLNENIQEQLERALNSS (Peptide I - A chimera peptide linking the helix B exterior-presenting amino acids to the beta pleated sheet found within the AB loop of the EPO) [chimera: Peptide G + β-pleated sheet (33-39)],tissue protective activity in the sciatic nerve injury model (in words),[2],is tissue protective
"APPRLICDSRVLERYLLEAKEAE (Peptide A - consists of the N-terminal portion of Helix A corresponding to EPO amino acids 1-23) [EPO fragment, amino acids 1-23]",tissue protective activity in the sciatic nerve injury model (in words),[2],is tissue protective
QEQLERALNSSLRRYINMLTRTR (Peptide J - A chimera peptide of Peptide G linked to pancreatic polypeptide helix),tissue protective activity in the sciatic nerve injury model (in words),[2],potent tissue protective activity
"NITTGCAEHCSLNE (Peptide B - consists of EPO amino acids 24-37) [EPO fragment, amino acids 24-37]",tissue protective activity in the sciatic nerve injury model (in words),[2],is not tissue protective
same,increase in hemoglobin levels (hematocrit),[1],Neither Peptide B nor Peptide C showed any increase in hematocrit
"GCAEHCSLNENITVPDTKVN (Peptide E - a portion of the A-B loop consisting of a small cysteine loop and a Beta-pleated sheet corresponding to EPO amino acids 28-47) [EPO fragment, amino acids 28-47]",tissue protective activity in the sciatic nerve injury model (in words),[2],is tissue protective
same,tissue protective activity in the sciatic nerve injury model (in words),[2]; listed as SEQ ID NO:31,exhibit tissue protective properties
same,clinical score / neurological function in EAE,[3],significantly reduced both the time course and severity; also recorded: significantly improved neurological function
